From patent US9701664B2, “Fused 1,4-dihydrodioxin derivatives as inhibitors of heat shock transcription factor 1” (Cancer Research Technology Limited, priority 2013, dated 2017)

What follows are molecules tested on HSP72 in U2OS cells (assay: Cell-based ELISA (Cellisa) assay, U2OS cells: inhibition of 17-AAG-induced HSP72). Settings: Homo sapiens; U2OS cells (Examples 1-168).
Procedure: U2OS cells (5-8×10^4 cells/mL) or SK-OV-3 cells (5-8×10^4 cells/mL) were seeded into 96-well plates and incubated at 37° C. for 48 h. Compounds were then added at a range of concentrations and incubated for 1 h before addition of 17-AAG (250 nM). Cells were then incubated for 18 h. The medium was removed washed 2× with PBS and cells were then fixed with fixing solution (4% paraformaldehyde, 0.3% TritonX-100 in PBS) for 30 min at 4° C. The plates were then washed 2× with PBS before blocking with 5% milk for 30 min at 37° C. After washing the plates 4× with 0.1% Tween-20/deionised water, HSP72 antibody (SPA-810, Enzo Life) was added for 1.5 h at 37° C. Following 4× washes, the plates were incubated with europium-labelled anti-mouse antibody (0.6 ug/ml) in Delfia assay buffer (Perkin Elmer) for 1 h at 37° C. After washing the plates, Delfia enhancement solution was added, shaken for 10 min before reading in the Envision plate reader (Perkin-Elmer) with excitation at 340 nm and emission at 615 nm. The plates were washed again before protein determination using the bicinchoninic acid assay (BCA assay, Pierce Biotechnology). The europium counts were normalised for the amount of protein in each well. The 50% inhibitory concentration value of the compound was then calculated.

**Q.** Which IC50 does the source give for `Cc1cc(NCCN2CCCC2)c2cc(C(=O)Nc3cc(NC(=O)c4ccc5c(c4)OCCO5)ccc3C)ccc2n1` [Example 117, N-(5-(2,3-dihydrobenzo[b][1,4]dioxine-6-carboxamido)-2-methylphenyl)-2-methyl-4-(2-(pyrrolidin-1-yl)ethylamino)quinoline-6-carboxamide] here?
**A.** 635 nM

**Q.** For `Cc1cc(NCCN2CCOCC2)c2cc(C(=O)Nc3cc(NC(=O)c4ccc5c(c4)OCCO5)ccc3C)ccc2n1` [Example 118, N-(5-(2,3-dihydrobenzo[b][1,4]dioxine-6-carboxamido)-2-methylphenyl)-2-methyl-4-(2-morpholinoethylamino)quinoline-6-carboxamide], which IC50 is on record?
**A.** 618 nM

**Q.** `CCC(=O)NCCNc1ccc2cc(C(=O)Nc3cc(NC(=O)c4ccc5c(c4)OCCO5)ccc3C)ccc2n1` [Example 83, N-(5-(2,3-dihydrobenzo[b][1,4]dioxine-6-carboxamido)-2-methylphenyl)-2-((2-propionamidoethyl)amino)quinoline-6-carboxamide] was tested. Which IC50 did it give?
**A.** 161 nM

**Q.** `Cc1ccc(NC(=O)c2ccc3c(c2)OCCO3)cc1NC(=O)c1ccc2nc(N3CCN(C)CC3)ccc2c1` [Example 74, N-(5-(2,3-dihydrobenzo[b][1,4]dioxine-6-carboxamido)-2-methylphenyl)-2-(4-methylpiperazin-1-yl)quinoline-6-carboxamide] was tested. Which IC50 did it give?
**A.** 232 nM

**Q.** With `CCNc1ccc(C(=O)Nc2cc(NC(=O)c3ccc4c(c3)OCCO4)ccc2C)cn1` [Example 102, N-(5-(2,3-dihydrobenzo[b][1,4]dioxine-6-carboxamido)-2-methylphenyl)-6-(ethylamino)nicotinamide] as the molecule, how does the IC50 read?
**A.** 835 nM

**Q.** For `Cc1ccc(NC(=O)c2ccc3c(c2)OCCO3)cc1NC(=O)c1ccc2c(c1)CCC(C)N2C` (stereo not shown) [Example 159, N-(5-(2,3-dihydrobenzo[b][1,4]dioxine-6-carboxamido)-2-methylphenyl)-1,2-dimethyl-1,2,3,4-tetrahydroquinoline-6-carboxamide], which IC50 is on record?
**A.** 345 nM

**Q.** For `Cc1ccc(NC(=O)c2ccc3c(c2)OCCO3)cc1NC(=O)c1ccc2c(c1)CC[C@H](C)N2` [Example 154, (S)—N-(5-(2,3-dihydrobenzo[b][1,4]dioxine-6-carboxamido)-2-methylphenyl)-2-methyl-1,2,3,4-tetrahydroquinoline-6-carboxamide], which IC50 is on record?
**A.** 145 nM

**Q.** Which IC50 does the source give for `COCCOc1cc(OC)c2cc(C(=O)Nc3cc(NC(=O)c4ccc5c(c4)OCCO5)ccc3C)ccc2n1` [Example 22, N-(5-(2,3-dihydrobenzo[b][1,4]dioxine-6-carboxamido)-2-methylphenyl)-4-methoxy-2-(2-methoxyethoxy)quinoline-6-carboxamide] here?
**A.** 160 nM

**Q.** Which IC50 does the source give for `Cc1ccc(NC(=O)c2ccc3c(c2)OCCO3)cc1NC(=O)c1ccc2c(c1)CCN2C(=O)OC(C)(C)C` [Example 30, tert-butyl 5-((5-(2,3-dihydrobenzo[b][1,4]dioxine-6-carboxamido)-2-methylphenyl)carbamoyl)indoline-1-carboxylate] here?
**A.** 507 nM

**Q.** With `Cc1ccc(NC(=O)c2ccc3c(c2)OCCO3)cc1NC(=O)c1ccc(OCc2cncs2)cc1` [Example 20, N-(4-methyl-3-(4-(thiazol-5-ylmethoxy)benzamido)phenyl)-2,3-dihydrobenzo[b][1,4]dioxine-6-carboxamide] as the molecule, how does the IC50 read?
**A.** 1480 nM

**Q.** How did the IC50 turn out when `COC(C)c1ccc2cc(C(=O)Nc3cc(NC(=O)c4ccc5c(c4)OCCO5)ccc3C)ccc2n1` (stereo not shown) [Example 153, N-(5-(2,3-dihydrobenzo[b][1,4]dioxine-6-carboxamido)-2-methylphenyl)-2-(1-methoxyethyl)quinoline-6-carboxamide] was run?
**A.** 140 nM

**Q.** How did the IC50 turn out when `Cc1ccc(NC(=O)c2ccc3c(c2)OCCO3)cc1NC(=O)c1ccc2c(ccc[n+]2[O-])c1` [Example 23, 6-((5-(2,3-dihydrobenzo[b][1,4]dioxine-6-carboxamido)-2-methylphenyl)carbamoyl)quinoline 1-oxide] was run?
**A.** 161 nM

Same assay, conditions: U2OS cells (Examples 1-168)

**Q.** With “N-(5-(2,3-dihydrobenzo[b][1,4]dioxine-6-carboxamido)-2-methyl)phenyl)-2-methyl-4-(2-(pyrrolidin-1-yl)ethoxy)quinoline-6-carboxamide [Example 120]” as the molecule, how does the IC50 read?
**A.** 2730 nM
